Data as given in patent publication US20080188562A1, “TREATING […] USING PRODRUGS OF […] PREGABALIN” (priority 2006, published 2008).

Legend:
[1] = Randomized, crossover, fed/fasted single-dose pharmacokinetics study of oral sustained release tablets of compound (3); type: in vivo, human; settings: tablets 2×600 mg oral
Experimental: A randomized, crossover, fed/fasted single-dose study of the safety, tolerability, and pharmacokinetics of oral administration of 1-{[(α-isobutanoyloxyethoxy)carbonyl]aminomethyl}-1-cyclohexane acetic acid (3) in healthy adult subjects was conducted. The oral sustained release dosage form of Example 6 was used in this study. The study was designed to evaluate the performance of this formulation in humans in comparison with the commercial gabapentin capsule formulation (Neurontin®, Pfizer). Twelve healthy adult volunteers (7 males and 5 females) participated in the study. Mean body weight was 75.6 kg. All subjects received two different treatments in a random order with a one-week washout between treatments.
Blood and plasma samples were collected from all subjects prior to dosing, and at 0.5, 1, 1.5, 2, 3, 4, 6, 8, 12, 18, 24, and 36 hours after dosing. Urine samples were collected from all subjects prior to dosing, and complete urine output was obtained at the 0-4 h, 4-8 h, 8-12 h, 12-18 h, 18-24 h, and 24-36 h intervals after dosing. Blood samples were quenched immediately with methanol and stored frozen at <70° C. Sample aliquots were prepared for analysis of gabapentin and compound (3) using sensitive and specific LC/MS/MS methods.

[2] = cited from earlier work
[3] = test system: acoustic trauma-induced tinnitus; settings: animals; Bauer and Brozoski 2001; cited from earlier work
tinnitus = settings: doses up to 2,400 mg/day; Bauer and Brozoski 2006; cited from earlier work

In the case of `CC(OC(=O)NCC1(CC(=O)O)CCCCC1)OC(=O)C(C)C` (stereo not drawn) [compound (3), 1-{[(α-Isobutanoyloxyethoxy)carbonyl]aminomethyl}-1-Cyclohexane Acetic Acid], the “AUC of compound (3) in blood as percent of corresponding AUC of gabapentin in blood” value ([1]; fasted) is reported as 0.3%, the “Maximum concentration of intact compound (3) as percent of corresponding peak gabapentin concentration” value ([1]; fasted) is reported as “approximately 1.0%” and the “Maximum concentration of intact compound (3) in blood” value ([1]; fasted) is reported as 0.040 µg/mL. The “AUC of compound (3) in blood as percent of corresponding AUC of gabapentin in blood” value ([1]; fed) was “less than 0.1%”, the “Maximum concentration of intact compound (3) as percent of corresponding peak gabapentin concentration” value ([1]; fed) was “approximately 0.3%” and the “Maximum concentration of intact compound (3) in blood” value ([1]; fed) was 0.018 µg/mL.

For `NCC1(CC(=O)O)CCCCC1` [gabapentin], the “Typical Tmax of immediate release gabapentin” value [2] is given as 2 to 4 h, the “Attenuation of acoustic trauma-induced tinnitus” value [3] is given as “effective in reversibly attenuating acoustic trauma-induced tinnitus in animals” and the “Efficacy in treating tinnitus” value (tinnitus) is given as “effective in treating tinnitus”.
